Species: Rattus norvegicus
Assay: Open TG-GATES - Regimen: Single
Type: toxicity, organism-based, Sprague-Dawley
Set-up: regimen Single, gender Male, age 6 weeks
Conditions: in vivo, po, route gavage; for APTT / Bas / Eos / Fbg / Hb / Ht / Lym / MCH / MCHC / MCV / Mono / Neu / PT / Plat / RBC / Ret / WBC: tissue Blood; for KIDNEY_L / KIDNEY_R / KIDNEY_TOTAL: tissue Kidney; for LIVER: tissue Liver; for A/G / ALP / ALT / AST / BUN / CRE / Ca / Cl / DBIL / GLC / IP / K / LDH / Na / PL / RALB / TBIL / TC / TG / TP / gamma-GTP: tissue Plasma
[1] = 300 mg/kg, 3 h, dose level Middle
[2] = 300 mg/kg, 6 h, dose level Middle
[3] = 300 mg/kg, 9 h, dose level Middle
[4] = 300 mg/kg, 24 h, dose level Middle
[5] = 1000 mg/kg, 3 h, dose level High
[6] = 1000 mg/kg, 6 h, dose level High
[7] = 1000 mg/kg, 9 h, dose level High
[8] = 1000 mg/kg, 24 h, dose level High

## O=C(OC[C@H]1O[C@@H](OC(=O)c2cc(O)c(O)c(OC(=O)c3cc(O)c(O)c(O)c3)c2)[C@H](OC(=O)c2cc(O)c(O)c(OC(=O)c3cc(O)c(O)c(O)c3)c2)[C@@H](OC(=O)c2cc(O)c(O)c(OC(=O)c3cc(O)c(O)c(O)c3)c2)[C@@H]1OC(=O)c1cc(O)c(O)c(OC(=O)c2cc(O)c(O)c(O)c2)c1)c1cc(O)c(O)c(OC(=O)c2cc(O)c(O)c(O)c2)c1 [TANNIC ACID]
[1]
  TERMINAL_BW: 187.9 g
  APTT: 16.5 s
  Bas: 0%
  Eos: 1%
  Fbg: 212 mg/dL
  Hb: 12.7 g/dL
  Ht: 37.9%
  Lym: 78.6%
  MCH: 21.9 pg
  MCHC: 33.4%
  MCV: 65.5 fL
  Mono: 7.6%
  Neu: 13.4%
  PT: 11.6 s
  Plat: 101.9 x10_4/uL
  RBC: 579.2 x10_4/ul
  Ret: 9.9%
  WBC: 113.5 x10_2/uL
  KIDNEY_L: 0.9 g
  KIDNEY_R: 0.9 g
  KIDNEY_TOTAL: 1.8 g
  LIVER: 8.5 g
  A/G: 2.2
  ALP: 1029.8 IU/L
  ALT: 37.6 IU/L
  AST: 68.6 IU/L
  BUN: 13.6 mg/dL
  CRE: 0.5 mg/dL
  Ca: 10.7 mg/dL
  Cl: 105 meq/L
  DBIL: 0.02 mg/dL
  GLC: 198 mg/dL
  IP: 10.6 mg/dL
  K: 4.7 meq/L
  LDH: 85.8 IU/L
  Na: 139.6 meq/L
  PL: 148.4 mg/dL
  RALB: 3.7 g/dL
  TBIL: 0.5 mg/dL
  TC: 81.6 mg/dL
  TG: 42.4 mg/dL
  TP: 5.3 g/dL
  gamma-GTP: 1.2 IU/L
[2]
  TERMINAL_BW: 184.2 g
  APTT: 16.5 s
  Bas: 0%
  Eos: 1%
  Fbg: 214.4 mg/dL
  Hb: 13 g/dL
  Ht: 39.1%
  Lym: 75.4%
  MCH: 22 pg
  MCHC: 33.3%
  MCV: 66.1 fL
  Mono: 8.6%
  Neu: 15.2%
  PT: 12 s
  Plat: 112.5 x10_4/uL
  RBC: 591.4 x10_4/ul
  Ret: 9.6%
  WBC: 93 x10_2/uL
  KIDNEY_L: 0.9 g
  KIDNEY_R: 0.9 g
  KIDNEY_TOTAL: 1.8 g
  LIVER: 8.2 g
  A/G: 1.9
  ALP: 784.6 IU/L
  ALT: 38.4 IU/L
  AST: 67.2 IU/L
  BUN: 12.2 mg/dL
  CRE: 0.5 mg/dL
  Ca: 10.6 mg/dL
  Cl: 105.6 meq/L
  DBIL: 0.03 mg/dL
  GLC: 184.2 mg/dL
  IP: 10.2 mg/dL
  K: 4.8 meq/L
  LDH: 106.8 IU/L
  Na: 139.2 meq/L
  PL: 133 mg/dL
  RALB: 3.4 g/dL
  TBIL: 0.6 mg/dL
  TC: 74.4 mg/dL
  TG: 32 mg/dL
  TP: 5.2 g/dL
  gamma-GTP: 1.4 IU/L
[3]
  TERMINAL_BW: 182 g
  APTT: 16.4 s
  Bas: 0%
  Eos: 1%
  Fbg: 219.8 mg/dL
  Hb: 13 g/dL
  Ht: 39%
  Lym: 74.8%
  MCH: 21.9 pg
  MCHC: 33.3%
  MCV: 65.9 fL
  Mono: 6.8%
  Neu: 17.2%
  PT: 12.1 s
  Plat: 122.2 x10_4/uL
  RBC: 592.8 x10_4/ul
  Ret: 11%
  WBC: 92.9 x10_2/uL
  KIDNEY_L: 0.8 g
  KIDNEY_R: 0.8 g
  KIDNEY_TOTAL: 1.6 g
  LIVER: 7.5 g
  A/G: 2.1
  ALP: 836.4 IU/L
  ALT: 35 IU/L
  AST: 60.6 IU/L
  BUN: 12.6 mg/dL
  CRE: 0.4 mg/dL
  Ca: 10.4 mg/dL
  Cl: 105.4 meq/L
  DBIL: 0.034 mg/dL
  GLC: 191.4 mg/dL
  IP: 10 mg/dL
  K: 5.1 meq/L
  LDH: 92.2 IU/L
  Na: 137.2 meq/L
  PL: 126.8 mg/dL
  RALB: 3.7 g/dL
  TBIL: 0.5 mg/dL
  TC: 70.4 mg/dL
  TG: 32.4 mg/dL
  TP: 5.4 g/dL
  gamma-GTP: 1.8 IU/L
[4]
  TERMINAL_BW: 201.5 g
  APTT: 15.9 s
  Bas: 0%
  Eos: 0.8%
  Fbg: 217.8 mg/dL
  Hb: 13 g/dL
  Ht: 38.9%
  Lym: 75%
  MCH: 22 pg
  MCHC: 33.4%
  MCV: 65.8 fL
  Mono: 8.2%
  Neu: 16.2%
  PT: 11.7 s
  Plat: 110.3 x10_4/uL
  RBC: 591.6 x10_4/ul
  Ret: 9.5%
  WBC: 114.2 x10_2/uL
  KIDNEY_L: 0.9 g
  KIDNEY_R: 0.9 g
  KIDNEY_TOTAL: 1.8 g
  LIVER: 10.2 g
  A/G: 1.7
  ALP: 852.4 IU/L
  ALT: 44.4 IU/L
  AST: 67.8 IU/L
  BUN: 18.4 mg/dL
  CRE: 0.5 mg/dL
  Ca: 10.8 mg/dL
  Cl: 103.8 meq/L
  DBIL: 0.002 mg/dL
  GLC: 193.8 mg/dL
  IP: 9.1 mg/dL
  K: 4.4 meq/L
  LDH: 109.6 IU/L
  Na: 138.8 meq/L
  PL: 139 mg/dL
  RALB: 3.5 g/dL
  TBIL: 0.3 mg/dL
  TC: 75.2 mg/dL
  TG: 103.8 mg/dL
  TP: 5.6 g/dL
  gamma-GTP: 1.2 IU/L
[5]
  TERMINAL_BW: 189.4 g
  APTT: 17.2 s
  Bas: 0%
  Eos: 1%
  Fbg: 221.2 mg/dL
  Hb: 13 g/dL
  Ht: 38.9%
  Lym: 81.6%
  MCH: 21.7 pg
  MCHC: 33.3%
  MCV: 65.1 fL
  Mono: 4.8%
  Neu: 12.8%
  PT: 11.9 s
  Plat: 110.6 x10_4/uL
  RBC: 597.4 x10_4/ul
  Ret: 10.3%
  WBC: 104.1 x10_2/uL
  KIDNEY_L: 0.9 g
  KIDNEY_R: 0.9 g
  KIDNEY_TOTAL: 1.8 g
  LIVER: 8.5 g
  A/G: 2
  ALP: 805 IU/L
  ALT: 39.6 IU/L
  AST: 69.6 IU/L
  BUN: 12.2 mg/dL
  CRE: 0.4 mg/dL
  Ca: 10.8 mg/dL
  Cl: 104.6 meq/L
  DBIL: 0.016 mg/dL
  GLC: 191.4 mg/dL
  IP: 10.2 mg/dL
  K: 4.9 meq/L
  LDH: 101.8 IU/L
  Na: 138.2 meq/L
  PL: 128.2 mg/dL
  RALB: 3.7 g/dL
  TBIL: 0.5 mg/dL
  TC: 72.8 mg/dL
  TG: 35.8 mg/dL
  TP: 5.5 g/dL
  gamma-GTP: 1.2 IU/L
[6]
  TERMINAL_BW: 183.9 g
  APTT: 16.7 s
  Bas: 0%
  Eos: 1%
  Fbg: 211 mg/dL
  Hb: 13.5 g/dL
  Ht: 40.6%
  Lym: 76.2%
  MCH: 22 pg
  MCHC: 33.3%
  MCV: 66.1 fL
  Mono: 7%
  Neu: 16.2%
  PT: 12 s
  Plat: 115.1 x10_4/uL
  RBC: 613.8 x10_4/ul
  Ret: 9.7%
  WBC: 101 x10_2/uL
  KIDNEY_L: 0.9 g
  KIDNEY_R: 0.9 g
  KIDNEY_TOTAL: 1.8 g
  LIVER: 7.5 g
  A/G: 1.8
  ALP: 682.8 IU/L
  ALT: 41.4 IU/L
  AST: 68.8 IU/L
  BUN: 11.4 mg/dL
  CRE: 0.4 mg/dL
  Ca: 10.6 mg/dL
  Cl: 105.8 meq/L
  DBIL: 0.008 mg/dL
  GLC: 183.4 mg/dL
  IP: 11 mg/dL
  K: 5 meq/L
  LDH: 81.4 IU/L
  Na: 138.8 meq/L
  PL: 113.6 mg/dL
  RALB: 3.4 g/dL
  TBIL: 0.7 mg/dL
  TC: 65.2 mg/dL
  TG: 22.2 mg/dL
  TP: 5.3 g/dL
  gamma-GTP: 1.2 IU/L
[7]
  TERMINAL_BW: 185.5 g
  APTT: 16.9 s
  Bas: 0%
  Eos: 1%
  Fbg: 221 mg/dL
  Hb: 13.1 g/dL
  Ht: 39.1%
  Lym: 73%
  MCH: 22.3 pg
  MCHC: 33.6%
  MCV: 66.5 fL
  Mono: 8%
  Neu: 18.4%
  PT: 12.3 s
  Plat: 119.4 x10_4/uL
  RBC: 589.2 x10_4/ul
  Ret: 9.2%
  WBC: 87.8 x10_2/uL
  KIDNEY_L: 0.9 g
  KIDNEY_R: 0.8 g
  KIDNEY_TOTAL: 1.7 g
  LIVER: 7.1 g
  A/G: 2.3
  ALP: 772.8 IU/L
  ALT: 42.4 IU/L
  AST: 68.8 IU/L
  BUN: 12.2 mg/dL
  CRE: 0.4 mg/dL
  Ca: 10.2 mg/dL
  Cl: 106.8 meq/L
  DBIL: 0.08 mg/dL
  GLC: 193 mg/dL
  IP: 10.8 mg/dL
  K: 5 meq/L
  LDH: 69 IU/L
  Na: 137 meq/L
  PL: 113.8 mg/dL
  RALB: 3.7 g/dL
  TBIL: 0.9 mg/dL
  TC: 61.6 mg/dL
  TG: 16 mg/dL
  TP: 5.4 g/dL
  gamma-GTP: 2 IU/L
[8]
  TERMINAL_BW: 198.6 g
  APTT: 17.8 s
  Bas: 0%
  Eos: 1%
  Fbg: 221.4 mg/dL
  Hb: 12.6 g/dL
  Ht: 38.2%
  Lym: 75.2%
  MCH: 21.5 pg
  MCHC: 33.1%
  MCV: 64.8 fL
  Mono: 9.2%
  Neu: 15%
  PT: 11.8 s
  Plat: 104.8 x10_4/uL
  RBC: 588.8 x10_4/ul
  Ret: 9.3%
  WBC: 91 x10_2/uL
  KIDNEY_L: 0.9 g
  KIDNEY_R: 0.9 g
  KIDNEY_TOTAL: 1.7 g
  LIVER: 9.2 g
  A/G: 1.9
  ALP: 893.8 IU/L
  ALT: 36.4 IU/L
  AST: 62.4 IU/L
  BUN: 18 mg/dL
  CRE: 0.5 mg/dL
  Ca: 10.8 mg/dL
  Cl: 104.2 meq/L
  DBIL: 0 mg/dL
  GLC: 184 mg/dL
  IP: 7.8 mg/dL
  K: 4.6 meq/L
  LDH: 110.8 IU/L
  Na: 138.6 meq/L
  PL: 133.4 mg/dL
  RALB: 3.5 g/dL
  TBIL: 0.3 mg/dL
  TC: 72.2 mg/dL
  TG: 79.6 mg/dL
  TP: 5.4 g/dL
  gamma-GTP: 0.8 IU/L
